Test results reported in patent US20130204033A1, “ANTIPROLIFERATIVE COMPOUNDS, CONJUGATES THEREOF, METHODS THEREFOR, AND USES THEREOF” (Medarex, Inc., priority 2009, published 2013).
Like-named read-outs stand apart in the source and are kept apart here.

What was measured:
Type in all cases: cell-based, human
LNCaP = test: 3H thymidine proliferation assay, LNCaP
Experimental: (§1) This example generally describes the procedures used to assay the antiproliferative activity of compounds of this invention or their conjugates. Human tumor cell lines were obtained from the American Type Culture Collection (ATCC), P.O. Box 1549, Manassas, Va. 20108, USA, and cultured according to instruction from the ATCC. Cells were seeded at 1.0×10^3 or 1.0×10^4 cells/well in 96-well plates for 3 h for ATP assays or ^3H thymidine assays, respectively. 1:3 serial dilutions of free (unconjugated) compounds or their conjugates were added to the wells. Plates were allowed to incubate for 24 to 72 h. The ^3H thymidine plates were pulsed with 1.0 μCi of ^3H-thymidine per well for the last 24 hours of the total incubation period, harvested, and read on a Top Count Scintillation Counter (Packard Instruments, Meriden, Conn.). ATP levels in the ATP plates were measured using the […]-GLO® Luminescent Cell Viability kit following the manufacturer's manual and read on a GLOMAX® 20/20 luminometer (both from Promega, Madison, Wis., USA). The EC50 values—the concentration at which an agent inhibits or reduces cell proliferation by 50% —were determined using PRISM™ software, version 4.0 (GraphPad Software, La Jolla, Calif., USA).
(§2) Using the ^3H thymidine or the ATP luminescence assay, or both, the activities of compounds of this invention were assayed against the following cancer cell lines: HCT-15 (colorectal cancer, multi-drug resistant (MDR)); Hep3B (liver cancer); LNCaP (prostate cancer, androgen receptor positive (AR^+)); MDA-MB-231 (breast cancer, estrogen receptor, progesterone receptor, and Her2 negative (triple negative)); A2058 (melanoma); U-87 MG (glioblastoma); NCI-H460 (NSCLC); A549 (NSCLC); HPAC (pancreatic cancer, primary); PC3 (prostate cancer, AR); BT474 (breast cancer, Her2 highly positive (Her2hi)); SKOV3 (ovarian cancer, Her2hi); 786-O (renal cancer); UO-31 (renal cancer, MDR); NCI-H740 (SCLC); DMS53 (SCLC); SK-BR3 (breast cancer, Her2hi); ZR-75 (breast cancer, estrogen receptor positive); OVCAR3 (ovarian cancer); HL-60 (APL); OVCAR8/Adr (ovarian cancer, MDR); CEM-Cl (ALL); Nomo-1 (AML); RPMI-8226 (MM)); Raji (lymphoma); SW-480 (colorectal cancer, metastatic); SW-620 (colorectal cancer); and H226 (lung cancer). (Not all compounds were assayed against all cell lines.)
(§3) Table 2 provides the data for proliferation assays using the ^3H thymidine method, with an incubation period of 72 h.

A2058 = test: 3H thymidine proliferation assay, A2058; conditions: 3H thymidine method, 72 h incubation
Experimental: as §1, §2, §3

U-87 MG [1] = test: 3H thymidine proliferation assay, U-87 MG
Experimental: as §1, §2, §3

HPAC = test: 3H thymidine proliferation assay, HPAC
Experimental: as §1, §2, §3

BT474 = test: 3H thymidine proliferation assay, BT474
Experimental: as §1, §2, §3

786-O = test: 3H thymidine proliferation assay, 786-O
Experimental: as §1, §2, §3

UO-31 = test: 3H thymidine proliferation assay, UO-31
Experimental: as §1, §2, §3

SK-BR3 [2] = test: 3H thymidine proliferation assay, SK-BR3; conditions: 3H thymidine method, 72 h incubation
Experimental: as §1, §2, §3

OVCAR3 = test: 3H thymidine proliferation assay, OVCAR3
Experimental: as §1, §2, §3

HL-60 = test: 3H thymidine proliferation assay, HL-60
Experimental: as §1, §2, §3

RPMI-8226 = test: 3H thymidine proliferation assay, RPMI-8226
Experimental: as §1, §2, §3

Raji [3] = test: 3H thymidine proliferation assay, Raji
Experimental: as §1, §2, §3

HCT-15 = test: ATP luminescence proliferation assay, HCT-15
Experimental: as §1, §2
(§4) Table 3 provides the data for the ATP luminescence proliferation assays, with an incubation period of 48, 72, or 96 h, as noted.

MDA-MB-231 = test: ATP luminescence proliferation assay, MDA-MB-231
Experimental: as §1, §2, §4

U-87 MG [4] = test: ATP luminescence proliferation assay, U-87 MG
Experimental: as §1, §2, §4

DMS53 = test: ATP luminescence proliferation assay, DMS53
Experimental: as §1, §2, §4

SK-BR3 [5] = test: ATP luminescence proliferation assay, SK-BR3
Experimental: as §1, §2, §4

ZR-75 = test: ATP luminescence proliferation assay, ZR-75
Experimental: as §1, §2, §4

Raji [6] = test: ATP luminescence proliferation assay, Raji
Experimental: as §1, §2, §4

[7] = Homo sapiens, LNCaP, read-out: EC50, LNCaP, 3H thymidine method, 72 h incubation
[8] = Homo sapiens, U-87 MG, read-out: EC50, U-87 MG, 3H thymidine method, 72 h incubation
[9] = Homo sapiens, HPAC, read-out: EC50, HPAC, 3H thymidine method, 72 h incubation
[10] = Homo sapiens, BT-474, read-out: EC50, BT474, 3H thymidine method, 72 h incubation
[11] = Homo sapiens, UO-31, read-out: EC50, UO-31, 3H thymidine method, 72 h incubation
[12] = Homo sapiens, OVCAR-3, read-out: EC50, OVCAR3, 3H thymidine method, 72 h incubation
[13] = Homo sapiens, HL-60, read-out: EC50, HL-60, 3H thymidine method, 72 h incubation
[14] = Homo sapiens, RPMI-8226, read-out: EC50, RPMI-8226, 3H thymidine method, 72 h incubation
[15] = Homo sapiens, Raji, read-out: EC50, Raji, 3H thymidine method, 72 h incubation
[16] = Homo sapiens, HCT-15, 48 h, read-out: EC50 HCT-15 (48 h), ATP luminescence, HCT-15, 48 h incubation
[17] = Homo sapiens, MDA-MB-231, 48 h, read-out: EC50 MDA-MB-231 (48 h), ATP luminescence, MDA-MB-231, 48 h incubation
[18] = Homo sapiens, 72 h, read-out: EC50 U-87 MG (72 h), ATP luminescence, U-87 MG, 72 h incubation
[19] = Homo sapiens, DMS-53, 48 h, read-out: EC50 DMS53 (48 h), ATP luminescence, DMS53, 48 h incubation
[20] = Homo sapiens, SK-BR-3, 48 h, read-out: EC50 SK-BR3 (48 h), ATP luminescence, SK-BR3, 48 h incubation
[21] = Homo sapiens, ZR75, 48 h, read-out: EC50 ZR-75 (48 h), ATP luminescence, ZR-75, 48 h incubation
[22] = Homo sapiens, 72 h, read-out: EC50 Raji (72 h), ATP luminescence, Raji, 72 h incubation

Row | Compound | EC50 (LNCaP; [7]) | EC50 (A2058; Homo sapiens, A2058) | EC50 (U-87 MG [1]; [8]) | EC50 (HPAC; [9]) | EC50 (BT474; [10]) | EC50 (UO-31; [11]) | EC50 (SK-BR3 [2]; Homo sapiens, SK-BR-3) | EC50 (OVCAR3; [12]) | EC50 (HL-60; [13]) | EC50 (RPMI-8226; [14]) | EC50 (Raji [3]; [15]) | EC50 (HCT-15; [16]) | EC50 (MDA-MB-231; [17]) | EC50 (U-87 MG [4]; [18]) | EC50 (DMS53; [19]) | EC50 (SK-BR3 [5]; [20]) | EC50 (ZR-75; [21]) | EC50 (Raji [6]; [22]) | also measured
1 | CC[C@H](C)[C@H](NC(=O)[C@H]1CCCCN1C)C(=O)N(C)[C@H](C[C@@H](OC)c1nc(C(=O)N[C@@H](Cc2ccccc2)C(=O)OC)cs1)C(C)C [Compound 16] | – | – | – | – | – | – | – | – | – | – | – | – | – | – | – | – | – | – | EC50 (LNCaP; 3H thymidine method, 72 h incubation, read-out: EC50, LNCaP): > 100 nM; EC50 (A2058): > 100 nM; EC50 (U-87 MG [1]; 3H thymidine method, 72 h incubation, read-out: EC50, U-87 MG): > 100 nM; EC50 (HPAC; 3H thymidine method, 72 h incubation, read-out: EC50, HPAC): > 100 nM; EC50 (BT474; 3H thymidine method, 72 h incubation, read-out: EC50, BT474): > 100 nM; EC50 (786-O; 3H thymidine method, 72 h incubation, read-out: EC50, 786-O): 19 nM; EC50 (UO-31; 3H thymidine method, 72 h incubation, read-out: EC50, UO-31): > 100 nM; EC50 (SK-BR3 [2]): > 100 nM; EC50 (OVCAR3; 3H thymidine method, 72 h incubation, read-out: EC50, OVCAR3): > 100 nM; EC50 (HL-60; 3H thymidine method, 72 h incubation, read-out: EC50, HL-60): 8.9 nM; EC50 (RPMI-8226; 3H thymidine method, 72 h incubation, read-out: EC50, RPMI-8226): 22 nM; EC50 (Raji [3]; 3H thymidine method, 72 h incubation, read-out: EC50, Raji): 28 nM; EC50 (HCT-15; ATP luminescence, HCT-15, 48 h incubation, read-out: EC50 HCT-15 (48 h)): 157 nM; EC50 (MDA-MB-231; ATP luminescence, MDA-MB-231, 48 h incubation, read-out: EC50 MDA-MB-231 (48 h)): 28 nM; EC50 (U-87 MG [4]; ATP luminescence, 72 h incubation, read-out: EC50 U-87 MG (72 h)): > 100 nM; EC50 (DMS53; ATP luminescence, DMS53, 48 h incubation, read-out: EC50 DMS53 (48 h)): 50 nM; EC50 (SK-BR3 [5]; ATP luminescence, SK-BR3, 48 h incubation, read-out: EC50 SK-BR3 (48 h)): 6.6 nM; EC50 (ZR-75; ATP luminescence, ZR-75, 48 h incubation, read-out: EC50 ZR-75 (48 h)): 11 nM; EC50 (Raji [6]; ATP luminescence, 72 h incubation, read-out: EC50 Raji (72 h)): 3 nM
2 | CC[C@H](C)[C@H](NC(=O)[C@H]1CCCCN1C)C(=O)N(C)[C@H](C[C@@H](OC)c1nc(C(=O)NC(Cc2ccccc2)C[C@H](C)C(=O)O)cs1)C(C)C (some centres unmarked) [Compound 15] | 27 nM | 1.6 nM | 0.42 nM | 3 nM | 7.1 nM | 15 nM | 17 nM | > 100 nM | 0.6 nM | 3.3 nM | 0.47 nM | 40 nM | 5.6 nM | 8.6 nM | 32 nM | 3.9 nM | 13 nM | 2.5 nM | –
3 | CCCC(NC(=O)c1csc([C@@H](C[C@H](C(C)C)N(C)C(=O)[C@@H](NC(=O)[C@H]2CCCCN2C)[C@@H](C)CC)OC)n1)C(=O)OC (some centres unmarked) [Compound 17] | > 100 nM | > 100 nM | 12 nM | > 100 nM | > 100 nM | > 100 nM | > 100 nM | > 100 nM | 17 nM | 47 nM | 53 nM | 443 nM | 65 nM | 22 nM | ~80 nM | 24 nM | 24 nM | 27 nM | EC50 (786-O; Homo sapiens, 786-0, read-out: EC50, 786-O, 3H thymidine method, 72 h incubation): 32 nM
